EP1000623A1, “Use of epinastine as antitussivum” (Boehringer Ingelheim International GmbH, priority 1998, dated 2000)
Counter-ions that a name gives are not always drawn.

Test system: place preference
Experiment: Place conditioning (conditioned place preference, shuttle box)
Assay type: in vivo, Male ICR mice
Settings: 1 mg/kg, s.c.; mean ± S.E., n=8; time in drug-paired minus saline-paired place, 900-s session
Experimental: Male ICR mice (6 weeks old; Tokyo Laboratory Animals Science Co., Ltd., Tokyo, Japan), weighing about 30 g, were used. They had free access to food and water in an animal room which was maintained at 22 ± 1°C with a 12-hour light-dark cycle. This study was carried out in accordance with the Declaration of Helsinki and/or with the guide for the care and use of laboratory animals as adopted by the committee on the care and use of laboratory animals of Hoshi University, which is accredited by the Ministry of Education, Science, Sports and Culture, Japan.
Place conditioning was conducted as previously using a minor modification of an unbaised procedure [J. Kamei et al., Eur. J. Pharmacol. 318 (1996) 251]. The apparatus used was a shuttle box (15 x 30 x 15 cm: w x 1 x h) which was divided into two compartments of equal size. […] The time spent in each compartment during a 900-s session was then measured in a blinded fashion by an infrared beam sensor (KN-80, Natume, Tokyo, Japan). […]
The potency ration was calculated according to a statistical program (Program 11 of the Pharmacological Calculations System) (8). Conditioning scores represent the time spent in the drug paired place minus the time spent in the saline-paired place, and are expressed as mean ± S.E. The Wilcoxon test was used to determine whether individual doses produced a significant conditioning (P<0.05).

## NC1=NCC2c3ccccc3Cc3ccccc3N12 (stereo not shown) [epinastine, epinastine hydrochloride]
  mean conditioning score: 20.3 ± 61.8 s
